# Results as given in article PMC6502838, “Low potential enzymatic hydride transfer via highly cooperative and inversely functionalized flavin cofactors” (Nature Communications, 2019).
# Biological target: T1, 2-Naphthoyl-CoA reductase (NCR) (uncultured Desulfobacterium sp., UniProt E1YD54)
# T1 construct: gene N47_G38220; Strep-tag fusion, E. coli host, monomer; TIM barrel 19-359, linker 360-400 with [4Fe-4S], FAD domain 401-503 + 626-674, alpha/beta domain 504-625
# T1 sequence (E1YD54 1-670): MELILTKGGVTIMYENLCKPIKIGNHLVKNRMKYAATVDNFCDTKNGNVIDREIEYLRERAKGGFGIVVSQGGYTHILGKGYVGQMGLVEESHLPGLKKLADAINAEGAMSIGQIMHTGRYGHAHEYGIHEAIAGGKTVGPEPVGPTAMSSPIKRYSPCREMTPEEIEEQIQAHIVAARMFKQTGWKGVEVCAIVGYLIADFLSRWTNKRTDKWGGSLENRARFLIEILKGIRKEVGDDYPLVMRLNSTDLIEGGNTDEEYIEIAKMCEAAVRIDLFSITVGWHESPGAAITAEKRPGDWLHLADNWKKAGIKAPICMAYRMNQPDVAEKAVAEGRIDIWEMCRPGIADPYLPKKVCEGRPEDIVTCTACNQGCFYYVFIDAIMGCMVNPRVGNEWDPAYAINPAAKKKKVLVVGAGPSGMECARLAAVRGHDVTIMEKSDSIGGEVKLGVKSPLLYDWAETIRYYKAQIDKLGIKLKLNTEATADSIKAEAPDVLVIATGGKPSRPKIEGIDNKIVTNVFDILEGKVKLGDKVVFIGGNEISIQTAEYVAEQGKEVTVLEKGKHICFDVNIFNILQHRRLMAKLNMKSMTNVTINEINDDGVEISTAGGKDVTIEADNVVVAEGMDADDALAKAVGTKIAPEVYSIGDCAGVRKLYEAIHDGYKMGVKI
# Assay: X-ray crystal structure, soaked, […] A
# Assay type: binding
# Settings: crystals soaked with 0.5 mM NCoA, pH 6.5-7.0, 2 h, 4 C; active site, stacked on FMN; incompletely occupied
compound,measurement,value
CC(C)(COP(=O)(O)OP(=O)(O)OC[C@H]1O[C@@H](n2cnc3c(N)ncnc32)[C@H](O)[C@@H]1OP(=O)(O)O)[C@@H](O)C(=O)NCCC(=O)NCCSC(=O)c1ccc2ccccc2c1 [NCoA],"X-ray crystal structure, soaked, 2.2 A",structure in complex with the substrate NCoA and the product DHNCoA were determined
